Here are results for six compounds from patent US8945635B2, “Formulations comprising extracts from primitive plant species (mosses, ferns and lichens) to treat and prevent cancers” (priority 2006, dated 2015).

Read-outs that look alike come from different tables or passages of the source.

Data set [1] deals with Metastatic colon cancer (SW620) MTS cells. Description: Single agent treatment of metastatic colon cancer MTS cells. Type of data set: cell-based, human. To be noted: 5 days, 5-fluorouracil 2.5 μM, Gemcitabine 5 μM.
Protocol: Metastatic MTS colon cancer (SW620) were treated for 24 hours with extract samples 1 (moss), 2 (moss), 4 (moss), 6 (moss), 5 (moss), 7 (fern), 8 (fern), 9 (moss), all at 50 mg/mL, and for 5 days with the standard chemotherapeutics 5-fluorouracil at 2.5 μM and Gemcitabine at 5 μM.
Metastatic colon cancer (SW620) MTS cells were treated for 24 hours with extract samples 12 (moss), 13 (fern), 14 (lichen), all at 50 mg/mL, and for 5 days with the standard chemotherapeutics 5-fluorouracil at 2.5 μM and Gemcitabine at 5 μM.
For data set [2], the system named is GBM multicellular tumor spheroid (MTS) culture (ATCC crl-2020). An excerpt: (§1) Carmustine, berberine, curcumin, caffeic acid phenyl ester (CAPE), abscisic acid and a extract sample 19 (fern) were used, singly and in various combinations, to assess their potential effectiveness in promoting in vitro cell death responses in a malignant GBM cell line (ATCC crl-2020). Two different culture models were used in these experiments. The majority of vertebrate cells cultured in vitro grow as monolayers on an artificial substrate, as is the case with GBM cells. Live cells attach to the bottom of a tissue culture plate where they proliferate until the surface is confluent with cells. […] The three dimensional structure of solid tumors makes such tumors more resistant to treatment than a GBM cell monolayer culture. To more closely approximate in vivo conditions a multi-cellular tumor spheroid (MTS) model was used. In this model GBM cells were cultured on a 1% agarose matrix in a 24 well tissue culture dish to form multi cellular aggregates. […] Trypan blue staining and microscopic observation was used to assess cell viability after treatment.
A GBM multicellular tumor spheroid (MTS) culture plate was treated with moderately low concentrations of carmustine (50 μM dose); curcumin (20 μM dose); CAPE (20 μM dose); ABA (400 μM dose) and extract sample 19 (10 mg/mL dose). The treated cultures were incubated for 24 hours at 38° C. and assayed. The dosing conditions were designed to represent sub-optimal dosing conditions.
A GBM multicellular tumor spheroid (MTS) culture plate was treated with different two agent and three agent combinations including curcumin and extract sample 13; carmustine and extract sample 13; carmustine and curcumin; and carmustine and curcumin and extract sample 13. The agent concentrations were the same as in the single agent testing (carmustine (50 μM dose); curcumin (20 μM dose); CAPE (20 μM dose); ABA (400 μM dose) and extract sample 13 (10 mg/mL dose).
The treated cultures were incubated for 24 hours at 38° C. and assayed. The dosing conditions were designed to represent sub-optimal dosing conditions.

The test system of data set [3] is GBM monolayer culture (ATCC crl-2020). The settings on record: for Viability: GBM monolayer, 12 hours at 38° C., carmustine 50 μM, curcumin 20 μM, CAPE 20 μM, ABA 400 μM, extract sample 19 10 mg/mL.
Text: as §1
A GBM monolayer culture plate was treated with moderately low concentrations of carmustine (50 μM dose); curcumin (20 μM dose); CAPE (20 μM dose); ABA (400 μM dose) and extract sample 19 (10 mg/mL dose). The treated cultures were incubated for 12 hours at 38° C. and assayed. The dosing conditions were sub-optimal dosing conditions designed to allow better assessment of the combined agent results.

The test system of data set [4] is Glioblastoma Multiforme (GBM). The settings on record: cited from earlier work.
The mark [5] stands for this setting: Table 18, standard chemotherapeutics.
[6] abbreviates: Table 19, standard chemotherapeutics.
[7] abbreviates: GBM MTS cell cultures, agent used alone.
Setting [8] is: GBM monolayer cell cultures, agent used alone.

With `O=c1[nH]cc(F)c(=O)[nH]1` [5-fluorouracil], in data set [1] (setting [5]), the “% dead cells” value was determined as 55% and the “% live cells” value was found to be 45%. In data set [1] (setting [6]), the “% dead cells” value was found to be 75% and the “% live cells” value is 25%.
Consider `CC1=CC(=O)CC(C)(C)[C@@]1(O)/C=C/C(C)=C\C(=O)O` [ABA, abscisic acid], for which the “cytotoxicity of single agent in words” value in data set [2] (setting [7]) and in data set [3] (setting [8]) was “failed to produce significant cytotoxic responses” in each case. The Viability in data set [3] is on record as 100%.
For the compound `Nc1ccn([C@@H]2O[C@H](CO)[C@@H](O)C2(F)F)c(=O)n1` [Gemcitabine], in data set [1] (setting [5]), the “% dead cells” value was 20% and the “% live cells” value came to 80%. Also, in data set [1] (setting [6]), the “% dead cells” value stood at 95% and the “% live cells” value was 5%.
As to `O=NN(CCCl)C(=O)NCCCl` [carmustine, 1,3-bis(2-chloroethyl)-1-nitrosourea], the “cytotoxicity of single agent in words” value in data set [2] (setting [7]) and in data set [3] (setting [8]) was “only low level cytotoxicity” in each case. Also, the side effects entry in data set [4] (Intravenous administration) is “a decrease of bone marrow blood cells, lung damage and death”. Further, the mean survival rate in data set [4] (applied in time release fashion to the tumor site, from 11.6 months) is listed as 13.9 months. Moreover, the Viability in data set [3] is 100%.
Turning to `COc1cc(/C=C/C(=O)CC(=O)/C=C/c2ccc(O)c(OC)c2)ccc1O` [curcumin], the “cytotoxicity of single agent in words” value in data set [2] and in data set [3] was “failed to produce significant cytotoxic responses” each time.
With caffeic acid phenyl ester [CAPE], the “cytotoxicity of single agent in words” value in data set [2] (setting [7]) and in data set [3] (setting [8]) was “failed to produce significant cytotoxic responses” in each case. For the same compound, in data set [3], the Viability came to 100%.
